Reference: ChEMBL document CHEMBL2424654, “Optimization of enzyme-based ultrasonic/microwave-assisted extraction and evaluation of antioxidant activity of orcinol glucoside from the rhizomes of Curculigo orchioides Gaertn” (Med Chem Res, 2013)
≈ marks a conversion by molar mass, not a printed value. Calls of active or inactive are those of the source. No cut-off for these calls is given here.

Experiments:
Assay type in all cases: functional
[1] = Antioxidant activity assessed as hydroxyl radical scavenging activity at 2 mg/ml
[2] = system: Radical scavenging activity; test: Antioxidant activity assessed as DPPH radical scavenging activity at 2 mg/ml
[3] = Antioxidant activity assessed as superoxide anion radical scavenging activity at 2 mg/ml
[4] = system: Radical scavenging activity; test: Antioxidant activity assessed as DPPH radical scavenging activity
[5] = Antioxidant activity assessed as hydroxyl radical scavenging activity
[6] = Antioxidant activity assessed as reducing power at 0.5 to 2 mg/ml

In the case of `Cc1cc(O)cc(O[C@@H]2O[C@H](CO)[C@@H](O)[C@H](O)[C@H]2O)c1`, the Activity [1] is reported as 77.5%, the Activity [2] is reported as 69.3% and the Activity [3] is reported as 70.2%. For the same compound, the IC50 [4] was 900 µg/mL (≈ 3.14 mM), the Activity [5] was “Dose-dependent effect” and the Activity [6] was “Active”.
